Laboratory results reported in patent publication US20240216369A1, “THE USE OF A SPLICING MODULATOR FOR A TREATMENT SLOWING PROGRESSION OF HUNTINGTON'S DISEASE” (Novartis AG, priority 2019, published 2024).

Assays:
[1] = test system: tHTT; experiment: Mutant and total HTT multiplex HTRF assay in Q48 HTT human embryonic stem cell line: tHTT; assay type: cell-based; settings: Q48 HTT hESC, 48 hours
Method in brief: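 Q48 HTT hESCs from HD donors were treated with compound for 48 h at 37 °C after 24 h adherence, then lysed. Lysates were read by multiplex HTRF with N-terminal donor, polyQ (MW1) and post-polyQ (MAB2166) antibodies for 4-6 h at RT. Donor/acceptor ratios give relative mHTT and tHTT; pIC50 reported.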

[2] = test system: HTT mRNA; experiment: Blood HTT mRNA in infants with Type 1 SMA (droplet digital PCR); assay type: in vivo, human
Description: The effect of branaplam on the expression levels of Huntingtin (HTT) mRNA was assessed in infants with Type I spinal muscular atrophy who were enrolled in an open-label multi-part first-in-human proof of concept study of oral branaplam.
Patients were dosed once weekly with branaplam. The branaplam doses were escalated in subsequent cohorts until MTD was determined or when PK results confirmed that the MTD could not be reached due to a potential pharmacokinetic exposure plateau at higher doses. […]
Levels of HTT mRNA and novel-exon-included HTT mRNA were then quantified by polymerase chain reaction (PCR) using the Bio-Rad QX200 droplet digital PCR system. […]
For HTT mRNA levels, two independent predesigned quantitative PCR assays (Assay Hs.PT.58.14833829 with forward primer 5′-[…]-3′ (SEQ ID NO: 10), reverse primer 5′-[…]-3′ (SEQ ID NO: 11) and probe 5′-56-FAM/CGCTTCCAC/ZEN/TTGTCTTCATTCTCCTTGT/3IABKFQ-3′ (SEQ ID NO: 12) and assay Hs.PT.58.25550542 with forward primer 5′-[…]-3′ (SEQ ID NO: 13), reverse primer 5′-CACCACTCTGGCTTCACAA-3′ (SEQ ID NO: 14) and probe 5′-56-FAM/CCCGACAGC/ZEN/GAGTCAGTGATTGTT/3IABKFQ-3′ (SEQ ID NO: 15), purchased from Integrated DNA Technologies, Inc.) were used. […]

Q: Which results are given for CC1(C)CC(Oc2ccc(-c3ccc(-c4cn[nH]c4)cc3O)nn2)CC(C)(C)N1 [Compound 18, 5-(1H-pyrazol-4-yl)-2-(6-((2,2,6,6-tetramethylpiperidin-4-yl)oxy)pyridazin-3-yl)phenol]?
A: tHTT pIC50 [1]: 7.371; inclusion of the novel exon into blood HTT mRNA ([2]; infants with Type 1 SMA, once weekly oral, up to 1450 study days, listed as branaplam): induced and elevated; blood HTT mRNA levels between study days 904 and 1450 ([2]; only 1-5 long-term treated subjects): returned to values around baseline levels
